Assay results: article PMC8286840, “Identifying SARS-CoV-2 antiviral compounds by screening for small molecule inhibitors of Nsp3 papain-like protease” (Biochemical Journal, 2021)
Counter-ions that a name gives are not always drawn. Like-named read-outs stand apart in the source and are kept apart here.

What was measured:
[1] = target: T1, SARS-CoV-2 PLpro (nsp3 1564–1878) (Severe acute respiratory syndrome coronavirus 2, UniProt P0DTD1); assay: biochemical; parameters: FRET-quenched peptide (Pro3) cleavage by PLpro, 10 min pre-incubation, slope over 20 min, normalised to no-compound control; details: low concentration screen, read-out: % of control remaining
[2] = target: T1, SARS-CoV-2 PLpro (nsp3 1564–1878); assay: biochemical; parameters: FRET-quenched peptide (Pro3) cleavage by PLpro, 10 min pre-incubation, slope over 20 min, normalised to no-compound control; details: high concentration screen, read-out: % of control remaining

`C/C(Nc1ccccc1)=C1\C(=O)NC(Cc2ccccc2)C1=O` (stereo not shown) [(3E)-3-(1-anilinoethylidene)-5-benzyl-2,4-pyrrolidinedione] showed a remaining activity at 1.25 µM ([1]; Well no.=5686) of 96.9% and a remaining activity at 3.75 µM ([2]; Well no.=5686) of 97.8%.

Work on `COc1cc2c(cc1OC)[C@H]1CC(=O)[C@H](CC(C)C)CN1CC2` [(3R,11bR)-3-isobutyl-9,10-dimethoxy-1,3,4,6,7,11b-hexahydro-2H-pyrido[2,1-a]isoquinolin-2-one] yielded a remaining activity at 1.25 µM ([1]; Well no.=5582) of 93.7% and a remaining activity at 3.75 µM ([2]; Well no.=5582) of 98.6%.

Work on `C=C[C@]1(C)C[C@@H](OC(=O)CO)[C@]2(C)[C@H](C)CC[C@]3(CCC(=O)[C@H]32)[C@@H](C)[C@@H]1O` [(3aR,4R,5R,7S,8S,9R,9aS,12R)-8-hydroxy-4,7,9,12-tetramethyl-3-oxo-7-vinyldecahydro-4,9a-propanocyclopenta[8]annulen-5-yl 2-hydroxyacetate] yielded a remaining activity at 1.25 µM ([1]; Well no.=5764) of 97.1% and a remaining activity at 3.75 µM ([2]; Well no.=5764) of 97.7%.

`CCCCCCCCCCCC1N[C@H](C(=O)O)CS1` (stereo partly drawn) [(4R) - 2-Undecyl-4-thiazolidinecarboxylic acid] gave a remaining activity at 1.25 µM ([1]; Well no.=5484) of 104% and a remaining activity at 3.75 µM ([2]; Well no.=5484) of 106%.

For `Cc1ccc(CN2C(=O)S/C(=C\c3ccc(Cl)cc3)C2=O)cc1` [(5Z)-5-(4-chlorobenzylidene)-3-(4-methylbenzyl)-1,3-thiazolidine-2,4-dione], the remaining activity at 1.25 µM ([1]; Well no.=6027) was 94.6% and the remaining activity at 3.75 µM ([2]; Well no.=6027) was 94.7%.

In the case of `CC(O)C(O)C1CNc2nc(N)[nH]c(=O)c2N1` [(6R)-5,6,7,8-Tetrahydro-L-biopterin hydrochloride], the remaining activity at 1.25 µM ([1]; Well no.=1383) is reported as 101% and the remaining activity at 3.75 µM ([2]; Well no.=1383) is reported as 102%.

Work on `C=C1C=C(C)n2nc(CC3C(=O)C[C@](CCc4cc(CC)nc(CC)c4)(C4CCCC4)OC3=O)nc2N1` (stereo partly drawn) [(6R)-6-cyclopentyl-6-(2-(2,6-diethylpyridin-4-yl)ethyl)-3-((7-methyl-5-methylene-4,5-dihydro-[1,2,4]triazolo[1,5-a]pyrimidin-2-yl)methyl)dihydro-2H-pyran-2,4(3H)-dione] yielded a remaining activity at 1.25 µM ([1]; Well no.=5607) of 102% and a remaining activity at 3.75 µM ([2]; Well no.=5607) of 105%.

For `CCCCCC/C=C/C=C\CCCCCCCC(=O)O` [(9Z,11E)-Octadecadienoic acid], the remaining activity at 1.25 µM ([1]; Well no.=4354) was 106% and the remaining activity at 3.75 µM ([2]; Well no.=4354) was 106%.

In the case of `CC(C)=CCC[C@](C)(O)[C@H]1CC[C@]2(C)[C@@H]1[C@H](O)C[C@@H]1[C@@]3(C)CC[C@H](O)C(C)(C)[C@@H]3CC[C@]12C` [(20S)-Protopanaxadiol], the remaining activity at 1.25 µM ([1]; Well no.=6300) is reported as 106% and the remaining activity at 3.75 µM ([2]; Well no.=6300) is reported as 99.5%.

`CC(C)=CCC[C@](C)(O)[C@H]1CC[C@]2(C)[C@@H]1[C@H](O)C[C@@H]1[C@@]3(C)CC[C@H](O)C(C)(C)[C@@H]3[C@@H](O)C[C@]12C` [(20S)-Protopanaxatriol] was tested, and the remaining activity at 1.25 µM ([1]; Well no.=8387) was 96.6% and the remaining activity at 3.75 µM ([2]; Well no.=8387) was 91.4%.

`CC(C)CCC[C@H](C)[C@H]1CC[C@H]2[C@@H]3CCC4=CC(=NO)CC[C@]4(C)[C@H]3CC[C@]12C` [(20S)-cholest-4-en-3-one oxime] gave a remaining activity at 1.25 µM ([1]; Well no.=5966) of 94.3% and a remaining activity at 3.75 µM ([2]; Well no.=5966) of 96.1%.

With `CN1CCc2cc3c(cc2[C@H]1[C@@H]1OC(=O)c2c1ccc1c2OCO1)OCO3` [(+)-Bicuculline] the remaining activity at 1.25 µM ([1]; Well no.=369) was 103%, the remaining activity at 1.25 µM ([1]; Well no.=3679) was 99.7% and the remaining activity at 3.75 µM ([2]; Well no.=369) was 98.1%. The remaining activity at 3.75 µM ([2]; Well no.=3679) was 99.2%.

Compound `COc1ccc2c(c1O)-c1c3c(cc4c1[C@H](C2)N(C)CC4)OCO3` [(+)-Bulbocapnine hydrochloride] has a remaining activity at 1.25 µM ([1]; Well no.=494) of 102% and a remaining activity at 3.75 µM ([2]; Well no.=494) of 102%.

Compound `CC(C)(C)[C@]1(O)CCN2C[C@H]3c4ccccc4CCc4cccc(c43)[C@@H]2C1` [(+)-Butaclamol hydrochloride] has a remaining activity at 1.25 µM ([1]; Well no.=732) of 98.3% and a remaining activity at 3.75 µM ([2]; Well no.=732) of 98.3%.

In the case of `Oc1cc(O)c2c(c1)O[C@H](c1ccc(O)c(O)c1)[C@@H](O)C2` [(+)-Catechin Hydrate], the remaining activity at 1.25 µM ([1]; Well no.=283) is reported as 98% and the remaining activity at 3.75 µM ([2]; Well no.=283) is reported as 99.7%.

Compound `CN1Cc2c(ccc3c2OCO3)[C@@H]2[C@H]1c1cc3c(cc1C[C@@H]2O)OCO3` [(+)-Chelidonine] has a remaining activity at 1.25 µM ([1]; Well no.=3439) of 95.5% and a remaining activity at 3.75 µM ([2]; Well no.=3439) of 97.2%.

Compound `C=C[C@H]1CN2CC[C@H]1C[C@@H]2[C@@H](O)c1ccnc2ccccc12` [(+)-Cinchonine] has a remaining activity at 1.25 µM ([1]; Well no.=3198) of 109% and a remaining activity at 3.75 µM ([2]; Well no.=3198) of 107%.

`C[C@@H]1[C@@H]2Cc3ccc(O)cc3[C@@]1(C)CCN2CC1CC1` [(+)-Cyclazocine] was tested, and the remaining activity at 1.25 µM ([1]; Well no.=583) was 72.1% and the remaining activity at 3.75 µM ([2]; Well no.=583) was 98.8%.

`C=C1C[C@]23C[C@@]1(O)CC[C@H]2[C@@]12C=C[C@H](O)[C@@](C)(C(=O)O1)[C@H]2[C@@H]3C(=O)O` [(+)-Gibberellic acid] gave a remaining activity at 1.25 µM ([1]; Well no.=3212) of 103% and a remaining activity at 3.75 µM ([2]; Well no.=3212) of 105%.

`COC1=CC(=O)C[C@@H](C)[C@]12Oc1c(Cl)c(OC)cc(OC)c1C2=O` [(+)-Griseofulvin] gave a remaining activity at 1.25 µM ([1]; Well no.=3354) of 88.9% and a remaining activity at 3.75 µM ([2]; Well no.=3354) of 90.2%.

Work on `C[C@@H]1OC(=O)[C@H]2C[C@H]3CCCC[C@@H]3[C@@H](/C=C/[C@H]3CCC[C@H](C)N3C)[C@@H]12` [(+)-Himbacine] yielded a remaining activity at 1.25 µM ([1]; Well no.=706) of 99.2% and a remaining activity at 3.75 µM ([2]; Well no.=706) of 98.4%.

`COc1ccc2c(c1OC)C(=O)O[C@H]2[C@@H]1c2cc3c(cc2CCN1C)OCO3` [(+)-Hydrastine] was tested, and the remaining activity at 1.25 µM ([1]; Well no.=614) was 96.4% and the remaining activity at 3.75 µM ([2]; Well no.=614) was 97.7%.

In the case of `COc1ccc2c(c1O)-c1c(OC)c(OC)cc3c1[C@H](C2)N(C)CC3` [(+)-Isocorydine hydrochloride], the remaining activity at 1.25 µM ([1]; Well no.=3244) is reported as 93.2% and the remaining activity at 3.75 µM ([2]; Well no.=3244) is reported as 95.5%.

`C[C@]12N[C@H](Cc3ccccc31)c1ccccc12` [(+)-MK-801 hydrogen maleate] was tested, and the remaining activity at 1.25 µM ([1]; Well no.=1133) was 98.4% and the remaining activity at 3.75 µM ([2]; Well no.=1133) was 92.1%.

Compound `C[C@@H]1O[C@H](C[N+](C)(C)C)C[C@H]1O` [(+)-Muscarine chloride] has a remaining activity at 1.25 µM ([1]; Well no.=3254) of 97.9% and a remaining activity at 3.75 µM ([2]; Well no.=3254) of 99.2%.

`CC[C@@H]1C(=O)OC[C@@H]1Cc1cncn1C` [(+)-Pilocarpine hydrochloride] gave a remaining activity at 1.25 µM ([1]; Well no.=1102) of 96.5% and a remaining activity at 3.75 µM ([2]; Well no.=1102) of 96.8%.

In the case of `N[C@@H](Cn1oc(=O)[nH]c1=O)C(=O)O` [(+)-Quisqualic acid], the remaining activity at 1.25 µM ([1]; Well no.=1507) is reported as 96.2% and the remaining activity at 3.75 µM ([2]; Well no.=1507) is reported as 97.1%.

`O=C1c2c(O)cc(O)cc2O[C@H](c2ccc(O)c(O)c2)[C@H]1O` [(+)-Taxifolin] was tested, and the remaining activity at 1.25 µM ([1]; Well no.=3825) was 101% and the remaining activity at 3.75 µM ([2]; Well no.=3825) was 101%.

Work on `COc1cc2c(cc1OC)[C@H]1CC(=O)[C@H](CC(C)C)CN1CC2` [(+)-Tetrabenazine] yielded a remaining activity at 1.25 µM ([1]; Well no.=8086) of 107% and a remaining activity at 3.75 µM ([2]; Well no.=8086) of 108%.

Work on `COc1cc2c3cc1Oc1cc(ccc1O)C[C@@H]1c4c(cc(OC)c(O)c4Oc4ccc(cc4)C[C@@H]3N(C)CC2)CC[N+]1(C)C` [(+)-Tubocurarine chloride] yielded a remaining activity at 1.25 µM ([1]; Well no.=3471) of 103% and a remaining activity at 3.75 µM ([2]; Well no.=3471) of 104%.

With `CC(=O)C1=C(O)C=C2Oc3c(C(C)=O)c(O)c(C)c(O)c3[C@@]2(C)C1=O` [(+)-Usnic acid] the remaining activity at 1.25 µM ([1]; Well no.=3394) was 98.2% and the remaining activity at 3.75 µM ([2]; Well no.=3394) was 102%.
